Our source for the ED50 and Toxicity values is ChEMBL document CHEMBL1122855, “Antimalarial agents. 1. alpha-Santonin-derived cyclic peroxide as potential antimalarial agent” (1985).

Each structure is given as a SMILES string. In brackets after ≈: the same amount, converted by molar mass. Where only a bound is given, the exact number is not on record here.

In assay [1] the test system is Mus musculus. In words: In vitro antimalarial activity against chloroquine-resistant (Smith) isolates of Plasmodium falciparum at dose 160 mg/kg in mice (Mus musculus). In kind it is functional.
The test system of assay [2] is Mus musculus. Briefly: In vivo toxicity against chloroquine-resistant (Smith) isolates of Plasmodium berghei in mice (Mus musculus). The class given is functional.

In the case of `C[C@@H]1CC[C@H]2[C@@H](C)C(=O)O[C@@H]3O[C@@]4(C)CC[C@@H]1[C@]32OO4` [ARTEMISININ], the ED50 with Mus musculus [1] was less than 0.0034 mg/L.
Take `CC1=C[C@H]2C[C@]3(C)CC[C@H]4[C@H](C)C(=O)O[C@@H]4C13OO2` (single isomer, unassigned): the ED50 in the assay on Mus musculus [1] is 0.72859 mg/L (≈ 2.76 µM). This compound also displayed a Toxicity in the assay with Mus musculus [2] of 640 mg/kg.
